Consider five molecules from US20110111407A1, “METHOD FOR ANALYSING THE EPIGENETIC STATUS OF THE HTRA 1 GENE IN A BIOLOGICAL SAMPLE” (priority 2008, published 2011).

Like-named read-outs stand apart in the source and are kept apart here.

The subject of data set [1] is HtrA1 expression in HCT116 and SW480 cells. Put plainly: HtrA1 expression by quantitative real-time PCR after 5-Aza-dC and TSA treatment. The data set is classed as cell-based, human. Particulars: HCT116 and SW480 cancer cells treated with 5-Aza-dC (5 μM and 10 μM, 56 h) then 400 nM TSA (16 h) vs solvent only. The procedure:
Expression of HtrA1 in HCT116 and SW480 cells treated with 5-Aza-dC and TSA. Cells were treated with 5-Aza-dC and TSA or solvent only. RNA was extracted from the cells followed by reverse transcription. cDNA was analyzed by quantitative real-time PCR.
Cells were seeded at a density of 5×10^5/60 mm dish and allowed to attach over 24 h in a 37° C. incubator in a humified atmosphere with 5% CO2. 5-aza-2′-deoxycytidine was solved in 50% acetic acid. It was added to the medium for a final concentration ranging from 0 to 10 μM for 72 h. At every 24 h interval, fresh medium containing the drug was added. Cells were incubated in a 37° C. incubator in a humified atmosphere with 5% CO2. […]
At the end of the treatment cells were washed twice with PBS and RNA was isolated for analysis of HtrA1 expression using quantitative Real-Time-PCR. […]
Quantitative Real-Time PCR was performed on the RotorGene3000 (Corbett Life Science) using Absolute QPCR SYBR Green Mix (ABgene) according to the manufacturer's instructions. 1 μl of cDNA, 12.5 μl Absolute QPCR SYBR Green Mix and 400 nM of each primer were used for the quantitative real-time PCR reaction. […]
The relative gene expression level of HtrA1 was calculated relative to the GAPDH and PPIA genes according to the method of Pfaffl (Pfaffl Nucleic Acids Res 29:e45 (2001)).
For orientation: Quantitative PCR measures a nucleic acid by following its amplification.

Data set [2] relates to cells. The following applies: cited from earlier work.
The target in data set [3] is HtrA1 (Homo sapiens, UniProt Q92743). The data set is described as follows: HtrA1 enzymatic activity with p-NA substrate. The data set is classed as biochemical. Particulars: 25 μM Cytochalasin E, preincubated 10 minutes at 37° C., 0.5 mM p-NA substrate, measured 70 minutes at 405 nm. The procedure:
HtrA1 activity was determined with a p-NA substrate. HtrA1 was incubated with either DMSO alone or 25 μM Cytochalasin E that was dissolved in DMSO. Reaction was measured spectrophometrically for 70 minutes at 37° C. at 405 nm.
Enzymatic activity of HtrA1 was assayed using acyl p-nitroanilide (p-NA) substrate FANQHLCGSHLVEA-p-NA. HtrA1 (5 μg) was preincubated with Cytochalasin E (25 μM) for 10 minutes at 37° C. Reaction was initiated by adding p-NA substrate at a final concentration of 0.5 mM. The volume of each reaction was 100 μl in 50 mM Tris-HCl pH 8. Reaction was measured continuously in a spectrophotometer for 70 minutes at 37° C. at 405 nm.

Data set [4] relates to HtrA1. The data set is described as follows: HtrA1 RNA level by quantitative RT-PCR after shRNA transduction. In kind it is cell-based, human. The following applies: U373 and SW480 cells expressing the shRNA vs empty vector control. The protocol:
(§1) Analysis of HtrA1 and p21 expression in U373 (astrocytoma) and SW480 (colon cancer) cells transduced with an shRNA against HtrA1 or an empty vector control. The HtrA1- and p21-RNA level were analysed by quantitative RT-PCR.
(§2) The cell line SW480 derived from human colon adenocarcinoma (DMSZ no. ACC 313) and the cell line U373 MG derived from human glioblastoma astrocytoma (ECACC no. 89081403) were cultured in DMEM (Gibco, Invitrogen) supplemented with 10% fetal bovine serum (FBS) and 1% penicillin-streptomycin at 5% CO2 and 37° C. The media for the stable transduced SW480 cell lines additionally contain 1.8 μg/ml puromycin.
(§3) 4×10^5 SW480 cells/well were seeded into a six-well plate. After two days the six-well plate was 80% confluent and RNA was extracted by using total RNA isolation kit (Macherey-Nagel). RNA was purified with NucleoSpin RNAII columns (Macherey-Nagel) according to the procedure by the manufacturer. […]
(§4) Quantitative RT-PCR was done with Platinum SYBR Green qPCR-superMix-UDG-kit (Invitrogen) with Rotor-Gene RG3000 from Corbett Research. […]
(§5) The total reaction volume was of 25 μl, containing 12.5 μl SYBR Green PCR Master Mix (Invitrogen), 1 μl Primer (4.5 μM each) and 4 μl cDNA (20 ng). […] Melting curve was measured every 5 seconds from 50° C. to 99° C. Gene expression ratios for each sample were calculated as described (Pfaffl, Nucleic Acids Res, 29:e45 (2001)). […]

In data set [5] the test system is p21. The data set is described as follows: p21 RNA level by quantitative RT-PCR after shRNA against HtrA1. The data set is classed as cell-based, human. The procedure:
as §1, §2, §3, §4, §5

Data set [6] concerns SW480 cells. Put plainly: Polyploidy of SW480 cells depleted for HtrA1 (FACS, karyotyping). In kind it is cell-based, human. The procedure:
A) Polyploidy of SW480 cells depleted for HtrA1/FACS analysis • SW480 (colon cancer) cells were transduced with a shRNA against HtrA1. After some passages cells were analyzed by propidium iodide staining for their DNA content. Gate M1 corresponds to a DNA content of 2n, gate M3 corresponds to a DNA content of 4n and gate M5 corresponds to a DNA content of 8n. […] B) Polyploidy of SW480 cells depleted for HtrA 1/karyo-typing • Metaphase chromosomes of SW480 cell lines transduced with plko empty vector and plko vector containing a shRNA against HtrA1.
Cells were harvested by treatment with trypsin/EDTA. Cells were centrifuged for 5 minutes at 1700 g and 4° C. The pellet was resuspended and washed in 1 ml PBS. Cells were centrifuged again for 5 minutes at 1700 g and 4° C. The supernatant was discarded and the pellet was resuspended in 100 μl PBS. […] After addition of 5 μl RNase A (10 mg/ml) and 15 μl propidium iodide (2 mg/ml, Sigma #P4170), cells were incubated in the dark at 4° C. for 60 minutes and then analysed at the flow cytometer (FACScalibur, BD biosciences) […]
Cell suspensions were dropped onto pre-cleaned, wet, ice-cold glass microscope slides to obtain good spreading of the chromosome sets. […] Intact metaphase cells (those that were not disrupted during the preparation step) were counted for their chromosome numbers at 1000 fold magnification (oil-immersion).

HtrA1 (Homo sapiens, UniProt Q92743), sequence (Q92743 23-480): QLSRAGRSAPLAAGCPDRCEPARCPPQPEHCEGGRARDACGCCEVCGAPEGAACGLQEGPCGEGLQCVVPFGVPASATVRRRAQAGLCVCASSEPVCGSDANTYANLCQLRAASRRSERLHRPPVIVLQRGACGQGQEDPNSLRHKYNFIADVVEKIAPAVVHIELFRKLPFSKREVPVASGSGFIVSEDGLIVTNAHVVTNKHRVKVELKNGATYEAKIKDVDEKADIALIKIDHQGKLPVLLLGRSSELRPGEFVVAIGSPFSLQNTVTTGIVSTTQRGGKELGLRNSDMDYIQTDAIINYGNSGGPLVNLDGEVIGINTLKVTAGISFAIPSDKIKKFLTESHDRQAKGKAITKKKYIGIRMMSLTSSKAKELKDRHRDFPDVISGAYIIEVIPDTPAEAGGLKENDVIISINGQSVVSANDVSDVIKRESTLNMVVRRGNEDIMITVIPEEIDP

Consider `Nc1ncn([C@H]2C[C@H](O)[C@@H](CO)O2)c(=O)n1` [5-Aza-dC, 5-Aza-2′-deoxycytidine], for which, in data set [1], the HtrA1 expression result is given as “large increase in HtrA1 expression”.
On to `C=C1[C@@H](C)[C@H]2[C@H](Cc3ccccc3)NC(=O)[C@]23OC(=O)/C=C/[C@H](O)CCC[C@@H](C)C/C=C/[C@H]3[C@@H]1O` [Cytochalasin B], for which the “p21 induction and cell cycle arrest” value in data set [2] (high amounts) was “induce p21 and cell cycle arrest”. Further, the cell cycle arrest result is “cell cycle arrest via p21” in data set [2] (large amounts (10 μg/ml)) and “no cell cycle arrest” in data set [2] (low doses (0.5 μg/ml)). In addition, the polyploidy entry in data set [2] (large amounts (10 μg/ml)) is recorded as “cause polyploidy”; in data set [2] (low doses (0.5 μg/ml)), “also cause polyploidy”; in data set [2] (no concentration stated, by inhibition of actin polymerisation), “causes polyploidy”.
`C[C@H]1C/C=C/[C@H]2[C@@H]3O[C@]3(C)[C@@H](C)[C@H]3[C@H](Cc4ccccc4)NC(=O)[C@]32OC(=O)O/C=C/[C@@](C)(O)C1=O` [Cytochalasin E]: the HtrA1 activity inhibition result was “potent HtrA1 inhibitor” in data set [3] and “efficiently inhibits HtrA1” in data set [3] (listed as cytochalasin E).
`CC(/C=C/C(=O)NO)=C\[C@@H](C)C(=O)c1ccc(N(C)C)cc1` [TSA, Trichostatin A]: the HtrA1 expression result in data set [1] is given as “large increase in HtrA1 expression”.

B1: shRNA against HtrA1: hairpin sequence (Seq. ID. No 25/26) in lentiviral plko vector, knocks down HtrA1 (nucleic acid)
sense: CCGGGATCTCAGGAGCGTATATATTCTCGAGAATATATACGCTCCTGAGATCTTTTTG
antisense: CTAGAGTCCTCGCATATATAAGAGCTCTTATATATGCGAGGACTCTAGAAAAACTTAA
On to B1, for which the HtrA1 level downregulated entry in data set [4] is “more than 90%”. The “p21 mRNA levels downregulated by a factor of” value in data set [5] (HtrA1 expressed at much lower levels by shRNA) stood at 10. This molecule also gave a P21 level down-regulated in data set [5] (both cell lines (U373, SW480) expressing the shRNA against HtrA1) of 90%. Also, in data set [6] (SW480 cells vs empty vector), the “DNA content by propidium iodide staining (FACS)” value is “shift of the main peak from 2n to 4n and a shift of the smaller peak from 4n to 8n”. In data set [6] (SW480 cells vs empty vector control), the “polyploidy by karyotyping of metaphase chromosomes” value is given as “higher grade of polyploidy”.
